Experimental data reported in PubChem BioAssay (NCI).
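48-hour exposure; five concentrations; linearly interpolated endpoints. TGI: total growth inhibition.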

Key:
Experiment in all cases: DTP human tumour cell line panel, 48 h
HL-60(TB) leukemia = system: HL-60(TB) leukemia
ACHN renal = system: ACHN renal
786-0 renal = system: 786-0 renal
UACC-62 melanoma = system: UACC-62 melanoma
HCC-2998 colon = system: HCC-2998 colon
SW-620 colon = system: SW-620 colon
RPMI-8226 leukemia = system: RPMI-8226 leukemia
MALME-3M melanoma = system: MALME-3M melanoma
SK-MEL-28 melanoma = system: SK-MEL-28 melanoma
CAKI-1 renal = system: CAKI-1 renal
HOP-62 NSCLC = system: HOP-62 NSCLC
HCT-116 colon = system: HCT-116 colon
NCI-H23 lung = system: NCI-H23 lung
HOP-92 NSCLC = system: HOP-92 NSCLC
T-47D breast = system: T-47D breast
NCI/ADR-RES ovarian = system: NCI/ADR-RES ovarian
K-562 leukemia = system: K-562 leukemia
OVCAR-3 ovarian = system: OVCAR-3 ovarian
UACC-257 melanoma = system: UACC-257 melanoma
CCRF-CEM leukemia = system: CCRF-CEM leukemia
IGROV1 ovarian = system: IGROV1 ovarian
COLO 205 colon = system: COLO 205 colon
KM12 colon = system: KM12 colon
A498 renal = system: A498 renal
HCT-15 colon = system: HCT-15 colon
SF-295 CNS = system: SF-295 CNS
UO-31 renal = system: UO-31 renal
MDA-MB-231 breast = system: MDA-MB-231 breast
SF-539 CNS = system: SF-539 CNS
OVCAR-8 ovarian = system: OVCAR-8 ovarian
SK-MEL-5 melanoma = system: SK-MEL-5 melanoma
TK-10 renal = system: TK-10 renal
HT29 colon = system: HT29 colon
EKVX NSCLC = system: EKVX NSCLC
HS 578T breast = system: HS 578T breast
SNB-75 CNS = system: SNB-75 CNS
NCI-H226 lung = system: NCI-H226 lung
SR leukemia = system: SR leukemia
A549 NSCLC = system: A549 NSCLC
MCF7 breast = system: MCF7 breast
SNB-19 CNS = system: SNB-19 CNS
BT-549 breast = system: BT-549 breast
SK-MEL-2 melanoma = system: SK-MEL-2 melanoma
SK-OV-3 ovarian = system: SK-OV-3 ovarian
MDA-N = system: MDA-N
SN12C renal = system: SN12C renal
NCI-H460 lung = system: NCI-H460 lung
M14 melanoma = system: M14 melanoma
SF-268 CNS = system: SF-268 CNS
MDA-MB-435 = system: MDA-MB-435
RXF 393 renal = system: RXF 393 renal
LOX IMVI melanoma = system: LOX IMVI melanoma
U251 CNS = system: U251 CNS
OVCAR-4 ovarian = system: OVCAR-4 ovarian
NCI-H522 lung = system: NCI-H522 lung
OVCAR-5 ovarian = system: OVCAR-5 ovarian
PC-3 prostate = system: PC-3 prostate
DU-145 prostate = system: DU-145 prostate
MOLT-4 leukemia = system: MOLT-4 leukemia

O=C(O)c1ccc(Cc2ccccc2C(=O)O)cc1
TGI (HL-60(TB) leukemia): > 100 µM | TGI (ACHN renal): > 100 µM | TGI (786-0 renal): > 100 µM | TGI (UACC-62 melanoma): > 100 µM | TGI (HCC-2998 colon): > 100 µM | TGI (SW-620 colon): > 100 µM | TGI (RPMI-8226 leukemia): > 100 µM | TGI (MALME-3M melanoma): > 100 µM | TGI (SK-MEL-28 melanoma): > 100 µM | TGI (CAKI-1 renal): > 100 µM | TGI (HOP-62 NSCLC): > 100 µM | TGI (HCT-116 colon): > 100 µM | TGI (NCI-H23 lung): > 100 µM | TGI (HOP-92 NSCLC): > 100 µM | TGI (T-47D breast): > 100 µM | TGI (NCI/ADR-RES ovarian): > 100 µM | TGI (K-562 leukemia): > 100 µM | TGI (OVCAR-3 ovarian): > 100 µM | TGI (UACC-257 melanoma): > 100 µM | TGI (CCRF-CEM leukemia): > 100 µM | TGI (IGROV1 ovarian): > 100 µM | TGI (COLO 205 colon): > 100 µM | TGI (KM12 colon): > 100 µM | TGI (A498 renal): > 100 µM | TGI (HCT-15 colon): > 100 µM | TGI (SF-295 CNS): > 100 µM | TGI (UO-31 renal): > 100 µM | TGI (MDA-MB-231 breast): > 100 µM | TGI (SF-539 CNS): > 100 µM | TGI (OVCAR-8 ovarian): > 100 µM | TGI (SK-MEL-5 melanoma): > 100 µM | TGI (TK-10 renal): > 100 µM | TGI (HT29 colon): > 100 µM | TGI (EKVX NSCLC): > 100 µM | TGI (HS 578T breast): > 100 µM | TGI (SNB-75 CNS): > 100 µM | TGI (NCI-H226 lung): > 100 µM | TGI (SR leukemia): > 100 µM | TGI (A549 NSCLC): > 100 µM | TGI (MCF7 breast): > 100 µM | TGI (SNB-19 CNS): > 100 µM | TGI (BT-549 breast): > 100 µM | TGI (SK-MEL-2 melanoma): > 100 µM | TGI (SK-OV-3 ovarian): > 100 µM | TGI (MDA-N): > 100 µM | TGI (SN12C renal): > 100 µM | TGI (NCI-H460 lung): > 100 µM | TGI (M14 melanoma): > 100 µM | TGI (SF-268 CNS): > 100 µM | TGI (MDA-MB-435): > 100 µM | TGI (RXF 393 renal): > 100 µM | TGI (LOX IMVI melanoma): > 100 µM | TGI (U251 CNS): > 100 µM | TGI (OVCAR-4 ovarian): > 100 µM | TGI (NCI-H522 lung): > 100 µM | TGI (OVCAR-5 ovarian): > 100 µM | TGI (PC-3 prostate): > 100 µM

COc1cc(-c2nc3nc(N4CCN(C)CC4)ccc3[nH]2)c(OC)c2[nH]c(CO)nc12
TGI (ACHN renal): > 100 µM | TGI (DU-145 prostate): > 100 µM | TGI (786-0 renal): > 100 µM | TGI (UACC-62 melanoma): > 100 µM | TGI (HCC-2998 colon): > 100 µM | TGI (SW-620 colon): > 100 µM | TGI (MALME-3M melanoma): > 100 µM | TGI (SK-MEL-28 melanoma): > 100 µM | TGI (CAKI-1 renal): > 100 µM | TGI (HOP-62 NSCLC): > 100 µM | TGI (HCT-116 colon): > 100 µM | TGI (NCI-H23 lung): > 100 µM | TGI (HOP-92 NSCLC): > 100 µM | TGI (T-47D breast): > 100 µM | TGI (NCI/ADR-RES ovarian): > 100 µM | TGI (K-562 leukemia): > 100 µM | TGI (OVCAR-3 ovarian): > 100 µM | TGI (UACC-257 melanoma): > 100 µM | TGI (IGROV1 ovarian): > 100 µM | TGI (COLO 205 colon): > 100 µM | TGI (KM12 colon): > 100 µM | TGI (A498 renal): > 100 µM | TGI (HCT-15 colon): > 100 µM | TGI (SF-295 CNS): > 100 µM | TGI (UO-31 renal): > 100 µM | TGI (MDA-MB-231 breast): > 100 µM | TGI (SF-539 CNS): > 100 µM | TGI (OVCAR-8 ovarian): > 100 µM | TGI (SK-MEL-5 melanoma): > 100 µM | TGI (TK-10 renal): > 100 µM | TGI (HT29 colon): > 100 µM | TGI (EKVX NSCLC): > 100 µM | TGI (HS 578T breast): > 100 µM | TGI (SNB-75 CNS): > 100 µM | TGI (NCI-H226 lung): > 100 µM | TGI (SR leukemia): > 100 µM | TGI (A549 NSCLC): > 100 µM | TGI (MCF7 breast): > 100 µM | TGI (SNB-19 CNS): > 100 µM | TGI (BT-549 breast): > 100 µM | TGI (SK-MEL-2 melanoma): 99.1 µM | TGI (SK-OV-3 ovarian): > 100 µM | TGI (MDA-N): > 100 µM | TGI (MOLT-4 leukemia): > 100 µM | TGI (SN12C renal): > 100 µM | TGI (NCI-H460 lung): > 100 µM | TGI (M14 melanoma): > 100 µM | TGI (SF-268 CNS): > 100 µM | TGI (MDA-MB-435): > 100 µM | TGI (RXF 393 renal): > 100 µM | TGI (LOX IMVI melanoma): > 100 µM | TGI (U251 CNS): > 100 µM | TGI (OVCAR-4 ovarian): > 100 µM | TGI (NCI-H522 lung): > 100 µM | TGI (OVCAR-5 ovarian): > 100 µM

COc1ccc(OC)c(C(=O)c2cccc(C(=O)c3cc(OC)ccc3OC)n2)c1
TGI (HL-60(TB) leukemia): 71.9 µM | TGI (ACHN renal): > 100 µM | TGI (DU-145 prostate): > 100 µM | TGI (786-0 renal): > 100 µM | TGI (UACC-62 melanoma): > 100 µM | TGI (HCC-2998 colon): > 100 µM | TGI (SW-620 colon): > 100 µM | TGI (MALME-3M melanoma): > 100 µM | TGI (SK-MEL-28 melanoma): > 100 µM | TGI (CAKI-1 renal): > 100 µM | TGI (HOP-62 NSCLC): > 100 µM | TGI (HCT-116 colon): > 100 µM | TGI (NCI-H23 lung): 74 µM | TGI (T-47D breast): > 100 µM | TGI (NCI/ADR-RES ovarian): > 100 µM | TGI (K-562 leukemia): > 100 µM | TGI (UACC-257 melanoma): > 100 µM | TGI (CCRF-CEM leukemia): > 100 µM | TGI (IGROV1 ovarian): > 100 µM | TGI (COLO 205 colon): > 100 µM | TGI (KM12 colon): > 100 µM | TGI (HCT-15 colon): > 100 µM | TGI (SF-295 CNS): 74.5 µM | TGI (UO-31 renal): 85.9 µM | TGI (MDA-MB-231 breast): > 100 µM | TGI (SF-539 CNS): > 100 µM | TGI (OVCAR-8 ovarian): > 100 µM | TGI (SK-MEL-5 melanoma): 50.5 µM | TGI (TK-10 renal): > 100 µM | TGI (HT29 colon): > 100 µM | TGI (EKVX NSCLC): > 100 µM | TGI (HS 578T breast): 84.5 µM | TGI (SNB-75 CNS): 59.4 µM | TGI (NCI-H226 lung): 74.9 µM | TGI (SR leukemia): > 100 µM | TGI (A549 NSCLC): > 100 µM | TGI (MCF7 breast): 67.5 µM | TGI (SNB-19 CNS): > 100 µM | TGI (BT-549 breast): 79.2 µM | TGI (SK-MEL-2 melanoma): 70.9 µM | TGI (SK-OV-3 ovarian): > 100 µM | TGI (MDA-N): 62.6 µM | TGI (MOLT-4 leukemia): > 100 µM | TGI (SN12C renal): > 100 µM | TGI (NCI-H460 lung): > 100 µM | TGI (M14 melanoma): > 100 µM | TGI (SF-268 CNS): > 100 µM | TGI (RXF 393 renal): 43.4 µM | TGI (LOX IMVI melanoma): > 100 µM | TGI (U251 CNS): > 100 µM | TGI (OVCAR-4 ovarian): > 100 µM | TGI (NCI-H522 lung): > 100 µM | TGI (OVCAR-5 ovarian): > 100 µM | TGI (PC-3 prostate): > 100 µM
